We go through one compound from paper PMC9354705, “Characterization of TR‐107, a novel chemical activator of the human mitochondrial protease ClpP” (Pharmacology Research & Perspectives, 2022).

Where “and” joins values, the source holds several entries; their conditions need not be identical. Equal values may be shown once.

The Kd is the free concentration of one partner at which half of the binding sites on the other are occupied at equilibrium, for simple one-to-one binding.

In one data set the target is T1, recombinant human ClpP (Homo sapiens, UniProt Q16740).
T1 construct: made in house
As to the kind of experiment: Surface plasmon resonance binding to ClpP. The note with it: steady state, one‐site Langmuir binding model, 25°C; read-out: Kd (SPR). The method, then:
For the surface plasmon resonance (SPR) experiments, recombinant human ClpP was purified as previously described.[46] SPR measurements were performed on a Biacore X100 instrument (Cytiva Life Sciences) at 25°C in buffer (25 mM sodium phosphate, pH 7.5, 200 mM KCl, 0.05% Tween‐20, and 0.004% DMSO). ClpP was immobilized onto flowcell two of a CM5 chip (Cytive Life Sciences) using the amine coupling wizard using Biacore X100 Control Software. A pulse of a mixture of NHS and EDC activated the CM5 chip surface. ClpP was diluted to 100 μg/ml in 10 mM sodium acetate, pH 4.5 immediately prior to use and injected over the activated surface for 180 s. The remaining activated sites were blocked with a pulse of ethanolamine. 12 000 RU of ClpP was captured using this procedure. Flowcell 1 was unmodified and served as a reference. For TR‐107 binding to ClpP, a concentration series of TR‐107 in DMSO was diluted into the buffer to achieve 0.004% final DMSO concentration in all samples. Three replicates were injected for each concentration. Data were blank subtracted and analysis was performed in Biacore X100 Evaluation Software (Cytiva Life Sciences). The steady‐state response was calculated 15 s before the end of injection with a window of 15 s. Data were fitted to a one‐site Langmuir binding model.

The subject of data set [1] is ClpP‐KO MDA‐MB‐231 and SUM159 cells. Briefly: Cell growth in ClpP‐KO cells. The format is cell-based, human. The note with it: concentrations as high as 1 μM, up to 72 h. An excerpt:
sgRNA against human ClpP (Eurofins Genomics) was annealed and ligated into vector VDB783. This vector was transformed into DH5α cells and the presence of sgRNA was confirmed by colony PCR. Lentivirus was produced in HEK293T cells following transfection with plasmid and jetPRIME (PolyPlus) as previously described.[43] Clonal populations of SUM159 cells infected with dCas9‐KRAB lentivirus were clonally isolated to ensure dCas9‐KRAB expression. Isolated SUM159 cells were infected with ClpP sgRNA lentivirus followed by additional selection passage in growth media supplemented with […] puromycin.
Total cell counting assays were performed by seeding MDA‐MB‐231 cells (WT and ClpP‐KO; 4000 cells/well) or SUM159 (WT and ClpP‐KO; 1000 cells/well) in a 96‐well plate (Perkin Elmer, 6005050) and allowed to adhere overnight. The growth medium was then aspirated and replaced with 100 μl of growth medium supplemented with the drug at concentrations indicated in the figure or figure legends. Cells treated with vehicle control (0.1% DMSO, Sigma‐Aldrich D2650) were used as a negative control in all experiments, and cells were incubated with drug‐containing media for 24, 48, or 72 h as indicated in figure legends. […] The total cell number was then quantified using the Celigo Imaging Cytometer (Nexcelom).

The next data set deals with MDA‐MB‐231 xenografts. Briefly: MDA‐MB‐231 mouse xenograft study. The format is in vivo. The method, then:
Mitochondrial DNA copy number was determined as previously described.[23] Briefly, genomic DNA was isolated from tissue lysate with DNeasy Blood & Tissue kit (Qiagen, 69504). mtDNA copy number was determined by quantitative PCR with a human mitochondrial to nuclear DNA ratio kit (Takara Bio USA, 7246).
Female athymic nude mice (Crl:NU[Ncr]‐Foxn1^ nu , Charles River) were 8 weeks old with body weight (BW) range of 19.0–27.0 g on Day 1 of the study. Animals were fed ad libitum water (reverse osmosis, 1 ppm Cl) and NIH 31 Modified and Irradiated Lab Diet® consisting of 18.0% crude protein, 5.0% crude fat, and 5.0% crude fiber. Mice were housed on irradiated Enrich‐o'cobs™ Laboratory Animal Bedding in static microisolators on a 14‐h light cycle at 20–22°C and 40%–60% humidity. Charles River Discovery Services North Carolina (CR Discovery Services) specifically complies with the recommendations of the Guide for Care and Use of Laboratory Animals with respect to restraint, husbandry, surgical procedures, feed and fluid regulation, and veterinary care. The animal care and use program at CR Discovery Services is accredited by the Association for Assessment and Accreditation of Laboratory Animal Care International.
MDA‐MB‐231 human breast adenocarcinoma cells were grown to mid‐log phase in RPMI‐1640 supplemented with 10% FBS, 2 mM glutamine, 100 units/ml sodium penicillin G, 25 μg/ml gentamicin, 100 μg/ml streptomycin sulfate, 0.075% sodium bicarbonate, 10 mM HEPES, and 1 mM sodium pyruvate. Cells were cultures at 37°C and 5% CO2.
MDA‐MB‐231 cells were harvested during exponential growth and resuspended in cold, sterile DPBS. Each animal received an orthotopic injection of 5 × 10^6 cells (0.05 ml volume) into the mammary fat pad. Tumor growth was monitored as the average tumor size approached the target range of 60–100 mm^3. Tumors were measured in two dimensions via caliper and volume was calculated using the following formula: Tumor Volume=w^2×l/2, where w is the width and l is the length (mm) of the tumor. Tumor weight was estimated based on the assumption that 1 mg = 1 mm^3. Fourteen days later (Day 1), animals were sorted into groups (n = 10 per group) with a mean tumor volume of 70–73 mm^3.
Compounds were administered orally (p.o.) in a dosing volume of 10 ml/kg. Twice daily doses (B.I.D) were administered at least 6 h apart.
Tumors were measured using calipers biweekly and animals were euthanized upon reaching tumor volume > 1500 mm^3 or on the final study day (Day 36), whichever came first. Time to endpoint (TTE) for analysis was calculated for animals that exited the study due to tumor volume using the following equation: TTE=log10endpoint volume−b/m, where TTE is expressed in days, endpoint volume is expressed in mm^3, b is the y‐intercept, and m is the slope of the line obtained by linear regression of a log‐transformed tumor growth data set. […] In instance where this equation yields a TTE day preceding the day prior to reaching the endpoint or exceeding the day of reaching the endpoint, a linear interpolation was performed to approximate TTE. Animals documented as having died of nontreatment‐related causes due to accident or unknown etiology were excluded from TTE calculations and all further analysis. Animals documented having died due to treatment‐related deaths or nontreatment‐related due to metastasis were assigned a TTE value equivalent to the day of death. Treatment outcome was evaluated from tumor growth delay (TGD) defined as the increase in the median TTE in the treatment group compared with the control group.
On Day 36, all animals in all groups were sampled. Tumors were excised, divided into two parts, and weighed. Part 1 was preserved in a 5 ml fixative solution (4% formaldehyde, 2% glutaraldehyde in 0.1 M cacodylate buffer) and stored at 4°C. Part 2 was trimmed to be less than 0.5 cm in at least one dimension, submerged in five volumes of RNAlater solution, and stored at −20°C.

T1 sequence (Q16740 57-277): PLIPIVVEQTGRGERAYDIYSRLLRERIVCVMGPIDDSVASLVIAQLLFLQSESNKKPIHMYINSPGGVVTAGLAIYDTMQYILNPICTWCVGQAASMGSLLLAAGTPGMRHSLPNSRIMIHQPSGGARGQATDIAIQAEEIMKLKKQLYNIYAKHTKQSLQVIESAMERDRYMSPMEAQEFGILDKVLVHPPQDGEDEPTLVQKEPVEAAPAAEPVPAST

Take `N#Cc1cccc(CN2CCc3ncn(Cc4ccc(Cl)cc4)c(=O)c3C2)c1` [TR‐107]: the Kd at recombinant human ClpP is ~0.18 µM and 0.178 µM. Moreover, the “cell growth in ClpP‐KO cells” value in data set [1] is “not inhibited”. Besides, the “reduction in tumor volume” value with MDA‐MB‐231 xenografts (4 mg/kg (G2) and 8 mg/kg (G3) oral, day 26, vs vehicle) is given as ~ 50%. For the same compound, the “increase in median survival” value with MDA‐MB‐231 xenografts (4 mg/kg and 8 mg/kg oral, both groups, vs vehicle) is reported as ~ 35%. Moreover, the “mitochondrial DNA in tumor lysates” value with MDA‐MB‐231 xenografts (8 mg/kg (G3) vs control, end of study) is “substantial loss”. In the data set on MDA‐MB‐231 xenografts (8 mg/kg vs vehicle), the “PYCR2 and HMGCS1 protein levels in tumor lysates” value is “significantly reduced”; the “TFAM in xenograft tumor lysates (immunoblot)” value is “significant loss”. Besides, the weight loss result with MDA‐MB‐231 xenografts (even at the highest dosing regimen) is given as “less than 5%”. In the data set with MDA‐MB‐231 xenografts (oral 4 and 8 mg/kg), the tolerability result is “well tolerated”.
